Assay results published in patent publication US9624169B2, “Aryl- and heteroaryl-pyrrolidine-2-carboxamide compounds” (SciFluor Life Sciences, Inc., priority 2015, dated 2017).

Test system: formalin induced pain
Test: Formalin induced pain model in rats (flinching, lifting, licking, biting and trembling of injected paw)
Conditions: for Effect on the flinching response (in words): at tested dose levels; for Effect on duration of paw lifting post-formalin injection (in words): all dose levels; for Effect on all testing behaviors (lifting, licking, biting and trembling) post-formalin injection (in words): all tested dose levels
[1] = Phase 1, group 3, 100 mg/ml (Table 2: 100 mg/kg P.O.)
[2] = Phase 2, group 3, 100 mg/ml (Table 2: 100 mg/kg P.O.)
[3] = phase 1, control compounds, Compound 1A at 3 mg/kg
[4] = Phase 1, group 2, 1 mg/ml (Table 2: 1 mg/kg I.P.)
[5] = Phase 2, group 2, 1 mg/ml (Table 2: 1 mg/kg I.P.)
[6] = Phase 1, group 4, 3 mg/ml (Table 2: 3 mg/kg P.O.)
[7] = Phase 1, group 5, 10 mg/ml (Table 2: 10 mg/kg P.O.)
[8] = Phase 1, group 6, 30 mg/ml (Table 2: 30 mg/kg P.O.)
[9] = Phase 2, group 4, 3 mg/ml (Table 2: 3 mg/kg P.O.)
[10] = Phase 2, group 5, 10 mg/ml (Table 2: 10 mg/kg P.O.)
[11] = Phase 2, group 6, 30 mg/ml (Table 2: 30 mg/kg P.O.)

NCC1(CC(=O)O)CCCCC1 [Gabapentin, reference compound]
Group Mean of Average Duration of Licking, Biting and Trembling [1]: 26.9 ± 14.7 No. per 5 min
Group Mean of Average Duration of Lifting [1]: 39.8 ± 41.5 No. per 5 min
Group Mean of Average Flinching Response [1]: 11.5 ± 5.7 No. per 5 min
Group Mean of Total Testing Behavior [1]: 66.6 ± 34.8 No. per 5 min
Group Mean of Average Duration of Licking, Biting and Trembling [2]: 17.1 ± 9.1 No. per 5 min
Group Mean of Average Duration of Lifting [2]: 20.7 ± 23.2 No. per 5 min
Group Mean of Average Flinching Response [2]: 16.0 ± 13.3 No. per 5 min
Group Mean of Total Testing Behavior [2]: 37.8 ± 23.7 No. per 5 min
Effect on the flinching response (in words): no effect
Overall effect of control compounds on formalin induced pain model (in words) (control compounds): consistent effect of inhibiting nociceptive pain
Effect on duration of paw lifting post-formalin injection (in words) (phase 1): no effects
Effect on all testing behaviors (lifting, licking, biting and trembling) post-formalin injection (in words) (phase 1): no any effects
Effect on duration of licking, biting and trembling post-formalin injection (in words) [3]: neither the control compounds (morphine and gabapentin) nor Compound 1A (at 3 mg/kg) had any effects
Effect on duration of licking, biting and trembling post-formalin injection (in words) (phase 2, 100 mg/kg): significantly decreased
Effect on duration of paw lifting post-formalin injection (in words) (phase 2): significant effect on inhibiting
Effect on all testing behaviors (lifting, licking, biting and trembling) post-formalin injection (in words) (phase 2): significantly reduced

CN1CC[C@]23c4c5ccc(O)c4O[C@H]2[C@@H](O)C=C[C@H]3[C@H]1C5 [morphine, reference compound]
Group Mean of Average Duration of Licking, Biting and Trembling [4]: 20.5 ± 13.1 No. per 5 min
Group Mean of Average Duration of Lifting [4]: 37.8 ± 27.7 No. per 5 min
Group Mean of Average Flinching Response [4]: 10.8 ± 7.7 No. per 5 min
Group Mean of Total Testing Behavior [4]: 58.3 ± 37.7 No. per 5 min
Group Mean of Average Duration of Licking, Biting and Trembling [5]: 12.1 ± 7.2 No. per 5 min
Group Mean of Average Duration of Lifting [5]: 3.2 ± 4.4 No. per 5 min
Group Mean of Average Flinching Response [5]: 12.3 ± 6.9 No. per 5 min
Group Mean of Total Testing Behavior [5]: 15.3 ± 9.0 No. per 5 min
Effect on the flinching response (in words): no effect
Overall effect of control compounds on formalin induced pain model (in words) (control compounds): consistent effect of inhibiting nociceptive pain
Effect on duration of paw lifting post-formalin injection (in words) (phase 1): no effects
Effect on all testing behaviors (lifting, licking, biting and trembling) post-formalin injection (in words) (phase 1): no any effects
Effect on duration of licking, biting and trembling post-formalin injection (in words) [3]: neither the control compounds (morphine and gabapentin) nor Compound 1A (at 3 mg/kg) had any effects
Effect on duration of licking, biting and trembling post-formalin injection (in words) (phase 2, 1 mg/kg): significantly decreased
Effect on duration of paw lifting post-formalin injection (in words) (phase 2): significant effect on inhibiting
Effect on all testing behaviors (lifting, licking, biting and trembling) post-formalin injection (in words) (phase 2): significantly reduced

NC(=O)[C@@H]1CC[C@H](c2ccc(OC(c3ccccc3F)C(F)(F)F)cc2)N1 (stereo partly drawn) [Compound 1A, (2S,5R)-5-(4-(2,2,2-trifluoro-1-(2-fluorophenyl)ethoxy)phenyl)pyrrolidine-2-carboxamide]
Group Mean of Average Duration of Licking, Biting and Trembling [6]: 34.2 ± 26.8 No. per 5 min
Group Mean of Average Duration of Lifting [6]: 37.1 ± 43.8 No. per 5 min
Group Mean of Average Flinching Response [6]: 15.2 ± 11.3 No. per 5 min
Group Mean of Total Testing Behavior [6]: 71.3 ± 56.4 No. per 5 min
Group Mean of Average Duration of Licking, Biting and Trembling [7]: 21.9 ± 25.1 No. per 5 min
Group Mean of Average Duration of Lifting [7]: 17.3 ± 22.8 No. per 5 min
Group Mean of Average Flinching Response [7]: 10.5 ± 3.7 No. per 5 min
Group Mean of Total Testing Behavior [7]: 39.2 ± 27.5 No. per 5 min
Group Mean of Average Duration of Licking, Biting and Trembling [8]: 17.4 ± 13.0 No. per 5 min
Group Mean of Average Duration of Lifting [8]: 21.3 ± 25.2 No. per 5 min
Group Mean of Average Flinching Response [8]: 22.0 ± 7.7 No. per 5 min
Group Mean of Total Testing Behavior [8]: 38.7 ± 31.8 No. per 5 min
Group Mean of Average Duration of Licking, Biting and Trembling [9]: 32.6 ± 27.6 No. per 5 min
Group Mean of Average Duration of Lifting [9]: 8.2 ± 10.4 No. per 5 min
Group Mean of Average Flinching Response [9]: 16.0 ± 10.2 No. per 5 min
Group Mean of Total Testing Behavior [9]: 40.8 ± 34.3 No. per 5 min
Group Mean of Average Duration of Licking, Biting and Trembling [10]: 20.7 ± 10.5 No. per 5 min
Group Mean of Average Duration of Lifting [10]: 5.1 ± 6.2 No. per 5 min
Group Mean of Average Flinching Response [10]: 16.6 ± 7.3 No. per 5 min
Group Mean of Total Testing Behavior [10]: 25.8 ± 15.1 No. per 5 min
Group Mean of Average Duration of Licking, Biting and Trembling [11]: 22.9 ± 14.5 No. per 5 min
Group Mean of Average Duration of Lifting [11]: 6.1 ± 6.7 No. per 5 min
Group Mean of Average Flinching Response [11]: 22.3 ± 12.5 No. per 5 min
Group Mean of Total Testing Behavior [11]: 29.0 ± 16.4 No. per 5 min
Effect on the flinching response (in words): no effect
Effect on duration of paw lifting post-formalin injection (in words) (phase 1): no effects
Effect on all testing behaviors (lifting, licking, biting and trembling) post-formalin injection (in words) (phase 1): no any effects
Effect on duration of licking, biting and trembling post-formalin injection (in words) [3]: neither the control compounds (morphine and gabapentin) nor Compound 1A (at 3 mg/kg) had any effects
Effect on duration of paw lifting post-formalin injection (in words) (phase 2): significant effect on inhibiting
Effect on all testing behaviors (lifting, licking, biting and trembling) post-formalin injection (in words) (phase 2): significantly reduced
Overall effect post formalin-induced pains (in words) (phase 2 observation period, especially at 10 mg/kg and 30 mg/kg): anti-nociceptive effects
Activity in the formalin pain model (in words) (rat, in vivo): active
